This is an account of results in ChEMBL document CHEMBL1201862, “PubChem BioAssay data set” (2004).

Each structure is given as a SMILES string. The source made the active and inactive calls.

Targets include Aurora kinase A (Homo sapiens, UniProt O14965); Aurora kinase B (Homo sapiens, UniProt Q96GD4); SRSF protein kinase 1 (Homo sapiens, UniProt Q96SB4).
What all share (assay type): functional
For test [1], the target named is DNA dC->dU-editing enzyme APOBEC-3A (Homo sapiens, UniProt P31941). Nature of the test: A3A deaminase inhibition for selectivity – biochemical, dose response (AID 504722).
Test [2] addresses DNA dC->dU-editing enzyme APOBEC-3G (Homo sapiens, UniProt Q9HC16). The experiment in a line: Dose Response confirmation of small molecule APOBEC3G DNA Deaminase Inhibitors via a fluorescence-based single-stranded DNA deaminase assay. [Related pubchem assays (depositor defined):AID493012, AID493028].
In test [3] the target is T1, Glycogen synthase kinase-3 beta (Homo sapiens, UniProt P49841). The experiment in a line: inhibition of human GSK3B activity – biochemical, microfluidics, dry powder samples, set 2, dose response (AID 623989).
In test [4] the target is Glycogen synthase kinase-3 alpha (Homo sapiens, UniProt P49840). The experiment in a line: GSK3A enzyme blockers, homolog specificity check – biochemical, microfluidics, dry powder samples, set 2, selectivity assay for GSK3beta inhibitor project, dose response (AID 623978).
Test [5] deals with Cyclin-dependent kinase 5/CDK5 activator 1 (Homo sapiens, UniProt Q00535). Nature of the test: inhibitors of human CDK5 activity – biochemical, microfluidic mobility shift, dry powder, set 2, selectivity assay for GSK3beta inhibitor project, dose response (AID 623979).
Test [6] concerns the target Melanin-concentrating hormone receptor 1 (Homo sapiens, UniProt Q99705). Nature of the test: Late-stage fluorescence-based counterscreen for antagonists of the G-protein coupled receptor 7 (GPR7): cell-based dose response assay to identify antagonists of the melanin-concentrating hormone receptor 1 (MCHR1) Set 6.
The target of test [7] is T2, Neuropeptides B/W receptor type 1 (Homo sapiens, UniProt P48145).
T2 sequence (P48145 whole entry): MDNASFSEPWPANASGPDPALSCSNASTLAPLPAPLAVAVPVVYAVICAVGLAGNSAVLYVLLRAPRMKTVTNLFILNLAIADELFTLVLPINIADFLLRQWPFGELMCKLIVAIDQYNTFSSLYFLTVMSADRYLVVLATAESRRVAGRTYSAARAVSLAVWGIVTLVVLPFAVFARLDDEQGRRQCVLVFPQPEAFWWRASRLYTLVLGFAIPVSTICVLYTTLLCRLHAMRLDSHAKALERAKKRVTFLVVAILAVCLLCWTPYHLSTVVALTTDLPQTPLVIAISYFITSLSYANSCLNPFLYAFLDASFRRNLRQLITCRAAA
The experiment in a line: human NPBW1 receptor blockade, IC50 – cell-based, fluorescence, dose response, set 6, late-stage follow-up (AID 588583).

Test [8] addresses Vascular endothelial growth factor receptor 2 (Homo sapiens, UniProt P35968).
Test [9] has as its target Serine/threonine-protein kinase pim-1 (Homo sapiens, UniProt P11309).
Test [10] has as its target Cell division cycle 7-related protein kinase (Homo sapiens, UniProt O00311).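 Further: value obtained from a kinome-wide kinase panel.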
In test [11] the target is Homeodomain-interacting protein kinase 2 (Homo sapiens, UniProt Q9H2X6).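 Further: measured within a kinome-wide kinase profiling panel, HIPK2 being one panel member.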
Test [12] deals with Interleukin-1 receptor-associated kinase 4 (Homo sapiens, UniProt Q9NWZ3).
In test [13] the target is T1, Glycogen synthase kinase-3 beta.
The target in test [14] is cAMP-dependent protein kinase catalytic subunit alpha (Homo sapiens, UniProt P17612).
The target in test [15] is Dual specificity protein kinase CLK4 (Homo sapiens, UniProt Q9HAZ1).
The target of test [16] is Mitogen-activated protein kinase kinase kinase kinase 4 (Homo sapiens, UniProt O95819).
Test [17] addresses ALK tyrosine kinase receptor (Homo sapiens, UniProt Q9UM73).
The target in test [18] is Cyclin-dependent kinase 5 (Homo sapiens, UniProt Q00535).
Test [19] has as its target Cyclin-dependent kinase 1 (Homo sapiens, UniProt P06493).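 Further: Kinome-wide panel profiling, with the target listed as panel member CDC2.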
Test [20] addresses Serine/threonine-protein kinase MRCK alpha (Homo sapiens, UniProt Q5VT25).

Chain of Cell division cycle 7-related protein kinase (O00311 whole entry): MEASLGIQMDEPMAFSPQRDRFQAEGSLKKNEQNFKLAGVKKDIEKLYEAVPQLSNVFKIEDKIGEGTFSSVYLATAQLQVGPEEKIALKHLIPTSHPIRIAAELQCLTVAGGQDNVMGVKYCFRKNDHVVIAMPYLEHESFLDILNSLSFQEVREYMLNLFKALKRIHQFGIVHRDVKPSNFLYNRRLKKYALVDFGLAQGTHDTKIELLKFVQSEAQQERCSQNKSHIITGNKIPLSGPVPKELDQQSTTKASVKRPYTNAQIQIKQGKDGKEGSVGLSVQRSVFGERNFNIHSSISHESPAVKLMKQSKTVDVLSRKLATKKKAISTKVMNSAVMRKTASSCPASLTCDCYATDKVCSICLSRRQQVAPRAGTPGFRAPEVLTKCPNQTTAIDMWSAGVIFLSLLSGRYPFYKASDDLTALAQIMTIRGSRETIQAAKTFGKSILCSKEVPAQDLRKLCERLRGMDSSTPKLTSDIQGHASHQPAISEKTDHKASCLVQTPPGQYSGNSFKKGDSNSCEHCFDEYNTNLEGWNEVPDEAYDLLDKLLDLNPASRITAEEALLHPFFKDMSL
T1 sequence (P49841 whole entry): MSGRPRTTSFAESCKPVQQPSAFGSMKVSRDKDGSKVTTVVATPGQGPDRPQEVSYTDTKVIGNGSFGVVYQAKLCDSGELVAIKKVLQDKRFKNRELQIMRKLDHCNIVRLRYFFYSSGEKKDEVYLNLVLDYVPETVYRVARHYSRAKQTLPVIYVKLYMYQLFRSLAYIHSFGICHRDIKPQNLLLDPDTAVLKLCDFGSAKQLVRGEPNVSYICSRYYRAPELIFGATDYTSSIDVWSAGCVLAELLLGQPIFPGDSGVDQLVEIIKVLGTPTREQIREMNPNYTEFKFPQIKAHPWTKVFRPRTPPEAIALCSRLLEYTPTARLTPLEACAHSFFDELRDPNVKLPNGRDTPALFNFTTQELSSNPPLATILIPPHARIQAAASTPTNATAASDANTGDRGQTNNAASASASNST
Chain of Interleukin-1 receptor-associated kinase 4 (Q9NWZ3 whole entry): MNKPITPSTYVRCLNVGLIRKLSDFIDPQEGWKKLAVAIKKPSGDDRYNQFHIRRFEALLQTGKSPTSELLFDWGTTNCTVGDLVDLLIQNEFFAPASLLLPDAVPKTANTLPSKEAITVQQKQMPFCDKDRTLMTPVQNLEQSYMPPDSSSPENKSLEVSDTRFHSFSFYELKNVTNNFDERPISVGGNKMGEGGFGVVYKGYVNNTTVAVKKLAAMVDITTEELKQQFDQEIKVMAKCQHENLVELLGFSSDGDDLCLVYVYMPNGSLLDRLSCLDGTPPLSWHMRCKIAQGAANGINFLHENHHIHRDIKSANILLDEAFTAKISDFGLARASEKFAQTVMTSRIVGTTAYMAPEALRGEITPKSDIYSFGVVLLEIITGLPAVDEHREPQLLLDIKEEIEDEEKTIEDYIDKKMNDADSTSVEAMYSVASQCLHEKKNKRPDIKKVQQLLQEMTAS
Chain of Glycogen synthase kinase-3 alpha (P49840 whole entry): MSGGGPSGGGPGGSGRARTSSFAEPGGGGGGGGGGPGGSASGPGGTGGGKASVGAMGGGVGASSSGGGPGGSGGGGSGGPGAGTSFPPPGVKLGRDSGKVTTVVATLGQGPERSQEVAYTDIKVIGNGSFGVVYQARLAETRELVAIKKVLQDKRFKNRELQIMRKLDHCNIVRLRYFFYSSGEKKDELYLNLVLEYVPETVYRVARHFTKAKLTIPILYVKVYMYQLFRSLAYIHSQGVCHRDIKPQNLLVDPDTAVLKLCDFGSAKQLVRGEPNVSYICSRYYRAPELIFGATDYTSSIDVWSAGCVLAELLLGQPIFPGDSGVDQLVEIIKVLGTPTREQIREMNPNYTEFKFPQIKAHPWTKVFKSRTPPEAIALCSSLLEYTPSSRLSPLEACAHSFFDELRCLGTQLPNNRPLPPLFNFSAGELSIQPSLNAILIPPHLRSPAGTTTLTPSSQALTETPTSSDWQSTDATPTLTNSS
Chain of ALK tyrosine kinase receptor (Q9UM73 whole entry): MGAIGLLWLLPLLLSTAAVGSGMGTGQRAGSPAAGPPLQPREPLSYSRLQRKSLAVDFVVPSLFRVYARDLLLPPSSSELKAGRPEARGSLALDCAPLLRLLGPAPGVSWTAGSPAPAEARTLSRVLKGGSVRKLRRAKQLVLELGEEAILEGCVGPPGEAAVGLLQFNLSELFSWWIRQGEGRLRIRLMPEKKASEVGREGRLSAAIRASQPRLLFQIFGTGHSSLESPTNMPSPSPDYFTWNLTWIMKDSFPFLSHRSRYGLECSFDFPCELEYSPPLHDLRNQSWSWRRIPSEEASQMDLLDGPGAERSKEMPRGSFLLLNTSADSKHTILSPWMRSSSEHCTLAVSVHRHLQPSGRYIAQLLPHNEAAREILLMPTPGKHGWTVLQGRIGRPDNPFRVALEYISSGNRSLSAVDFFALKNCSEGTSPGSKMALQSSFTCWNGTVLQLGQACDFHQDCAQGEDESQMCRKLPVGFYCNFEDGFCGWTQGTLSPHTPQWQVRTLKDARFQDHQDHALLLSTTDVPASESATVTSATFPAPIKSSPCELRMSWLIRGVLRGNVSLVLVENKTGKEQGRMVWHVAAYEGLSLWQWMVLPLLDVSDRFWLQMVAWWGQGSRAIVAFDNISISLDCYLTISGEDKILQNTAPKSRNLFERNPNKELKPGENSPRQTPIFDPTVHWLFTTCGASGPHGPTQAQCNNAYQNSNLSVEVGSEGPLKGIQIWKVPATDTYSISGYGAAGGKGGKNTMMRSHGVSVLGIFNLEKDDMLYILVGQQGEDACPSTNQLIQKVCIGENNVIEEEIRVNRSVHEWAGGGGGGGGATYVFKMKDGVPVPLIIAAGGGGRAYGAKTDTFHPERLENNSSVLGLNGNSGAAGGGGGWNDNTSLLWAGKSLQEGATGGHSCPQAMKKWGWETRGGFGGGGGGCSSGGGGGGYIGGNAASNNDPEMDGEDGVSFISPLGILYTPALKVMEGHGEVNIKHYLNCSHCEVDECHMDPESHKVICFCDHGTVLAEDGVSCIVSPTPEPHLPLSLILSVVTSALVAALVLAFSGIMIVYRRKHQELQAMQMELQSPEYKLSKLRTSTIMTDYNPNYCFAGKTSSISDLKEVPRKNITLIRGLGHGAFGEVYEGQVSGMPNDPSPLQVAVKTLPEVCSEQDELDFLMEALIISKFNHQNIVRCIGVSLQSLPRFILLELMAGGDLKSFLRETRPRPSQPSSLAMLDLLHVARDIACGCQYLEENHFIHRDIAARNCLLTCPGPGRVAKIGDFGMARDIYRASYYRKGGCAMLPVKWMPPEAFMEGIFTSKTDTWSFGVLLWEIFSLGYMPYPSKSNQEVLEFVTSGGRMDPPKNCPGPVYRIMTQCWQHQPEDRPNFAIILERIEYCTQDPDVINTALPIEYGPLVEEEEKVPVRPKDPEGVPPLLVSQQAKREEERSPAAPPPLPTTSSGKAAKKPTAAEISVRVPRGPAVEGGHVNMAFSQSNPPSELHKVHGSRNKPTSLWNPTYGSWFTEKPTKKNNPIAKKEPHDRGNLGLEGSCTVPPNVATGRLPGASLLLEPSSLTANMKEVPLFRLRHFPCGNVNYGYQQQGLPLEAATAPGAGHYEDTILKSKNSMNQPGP
Chain of Aurora kinase B (Q96GD4 whole entry): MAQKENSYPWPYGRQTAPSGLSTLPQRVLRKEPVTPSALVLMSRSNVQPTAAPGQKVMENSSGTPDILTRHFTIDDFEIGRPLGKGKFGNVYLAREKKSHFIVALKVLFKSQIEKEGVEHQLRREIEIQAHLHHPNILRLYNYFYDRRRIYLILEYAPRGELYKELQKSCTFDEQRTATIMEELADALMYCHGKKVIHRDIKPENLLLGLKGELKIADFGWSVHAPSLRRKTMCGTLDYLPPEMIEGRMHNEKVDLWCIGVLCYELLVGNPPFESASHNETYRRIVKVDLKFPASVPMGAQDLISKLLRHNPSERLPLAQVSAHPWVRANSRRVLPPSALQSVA
Chain of Cyclin-dependent kinase 1 (P06493 whole entry): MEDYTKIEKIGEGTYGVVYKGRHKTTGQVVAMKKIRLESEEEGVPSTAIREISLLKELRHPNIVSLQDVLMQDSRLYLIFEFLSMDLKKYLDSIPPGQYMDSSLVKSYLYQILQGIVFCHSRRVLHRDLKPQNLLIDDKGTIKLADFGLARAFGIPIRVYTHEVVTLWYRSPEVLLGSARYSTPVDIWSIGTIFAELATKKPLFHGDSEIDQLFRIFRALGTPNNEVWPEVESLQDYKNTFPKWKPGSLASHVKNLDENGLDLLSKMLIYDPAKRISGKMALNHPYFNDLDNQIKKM
Chain of Dual specificity protein kinase CLK4 (Q9HAZ1 whole entry): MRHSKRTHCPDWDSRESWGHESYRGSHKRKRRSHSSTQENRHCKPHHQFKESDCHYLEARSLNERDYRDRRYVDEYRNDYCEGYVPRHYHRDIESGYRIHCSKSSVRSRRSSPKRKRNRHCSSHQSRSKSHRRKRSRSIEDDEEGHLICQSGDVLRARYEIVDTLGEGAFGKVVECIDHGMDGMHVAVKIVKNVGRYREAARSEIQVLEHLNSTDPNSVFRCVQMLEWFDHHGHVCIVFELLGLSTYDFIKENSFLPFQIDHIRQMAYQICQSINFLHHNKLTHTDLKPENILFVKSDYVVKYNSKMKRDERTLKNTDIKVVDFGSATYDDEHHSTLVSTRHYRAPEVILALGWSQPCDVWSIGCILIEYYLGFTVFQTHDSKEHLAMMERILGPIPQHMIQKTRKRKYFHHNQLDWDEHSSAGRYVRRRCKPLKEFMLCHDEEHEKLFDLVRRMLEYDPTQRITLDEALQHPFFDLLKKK
Chain of Serine/threonine-protein kinase pim-1 (P11309 whole entry): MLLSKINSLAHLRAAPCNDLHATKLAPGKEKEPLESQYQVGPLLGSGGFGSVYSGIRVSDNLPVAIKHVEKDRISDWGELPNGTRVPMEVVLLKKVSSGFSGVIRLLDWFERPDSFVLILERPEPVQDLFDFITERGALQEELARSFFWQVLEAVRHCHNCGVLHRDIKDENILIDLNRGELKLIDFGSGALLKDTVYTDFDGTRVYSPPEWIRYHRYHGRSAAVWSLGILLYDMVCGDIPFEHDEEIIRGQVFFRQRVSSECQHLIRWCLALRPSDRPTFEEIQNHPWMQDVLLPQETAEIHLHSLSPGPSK

One may read the IC50 as the concentration needed to halve the response being measured. The AC50 is the concentration at which the activity in the assay is half-maximal. In the case of `Cc1ccc(-c2nnc(S)n2/N=C/c2ccncc2)cc1`, the IC50 in test [1] was > 100000 nM (inactive); in [2], 2480 nM (active). The AC50 is 1480 nM (active) in [3], 7710 nM (active) in [4] and 19300 nM (active) in test [5].

Consider `N#CC(c1cc(F)ccc1F)c1c(Cl)cnn(Cc2cccc3ccccc23)c1=O` (stereo not given), for which the IC50 in test [6] and in test [7] was 255 nM (active) each time.

The term Ki denotes a dissociation constant, usually derived from enzyme kinetics or from competition with a known ligand. Turning to `CC1(C)CC(C=Cc2ccc(Cl)cc2)=Cc2c1sc1ncnc(N)c21`, the Ki is 100 nM (active) at Aurora kinase A, 126 nM (active) in test [8] and 200 nM (active) on Aurora kinase B.

On to `CNCCOc1cncc(-c2ccc3[nH]nc(C)c3c2)c1`, for which the Ki is 794 nM (active) in [9]; 31.6 nM (active) in test [10]; 2000 nM (active) in test [11]; > 10000 nM (inactive) in test [12]; 2510 nM (active) in [13]; 794 nM (active) in [14]. The Ki in test [15] was 10 nM (active); in test [16], 79.4 nM (active).

As to `CS(=O)(=O)c1ccccc1Nc1nc(Nc2ccccc2)ncc1Cl`, the Ki in test [17] was 316 nM (active); in test [10], > 3980 nM (inactive).

Turning to `CN(c1ccccc1-c1ccc2c(c1)Nc1ccccc1NC2=O)S(C)(=O)=O`, the Ki was 5010 nM (active) on SRSF protein kinase 1; 5010 nM (active) in [18]; 2510 nM (active) in test [12]; 3980 nM (active) in [19]; 6310 nM (active) in test [20].
